# Results reported in ChEMBL document CHEMBL4373731, “Antiprotozoal alkaloid principles of the plant family Amaryllidaceae” (Bioorg Med Chem Lett, 2019).
# Assays:
# Trichomonas vaginalis [1] = test: Antiprotozoal activity against Trichomonas vaginalis assessed as reduction in […] at 250 ug/ml at relative to control; format: functional
# Trichomonas vaginalis [2] = test: Antitrichomonal activity against Trichomonas vaginalis assessed as reduction in parasite viability at 125 ug/ml relative to control; format: functional
# [3] = test system: Trypanosoma brucei rhodesiense; test: Antitrypanosomal activity against Trypanosoma brucei rhodesiense; format: functional, organism-based
# Trypanosoma cruzi [4] = test: Antitrypanosomal activity against Trypanosoma cruzi; format: functional, organism-based
# Entamoeba histolytica = test: […] activity against Entamoeba histolytica; format: functional, organism-based
# Leishmania donovani [5] = test: […] activity against Leishmania donovani; format: functional, organism-based
# KB = test: Cytotoxicity against human KB cells assessed as reduction in cell viability; format: cell-based
# L6 = test: Cytotoxicity against rat L6 cells assessed as reduction in cell viability; format: cell-based
# [6] = Selectivity index, ratio of IC50 for Trypanosoma brucei rhodesiense to IC50 for human KB cells; format: toxicity; details: read-out: Ratio IC50
# Trypanosoma cruzi [7] = test: Antitrypanosomal activity against Trypanosoma cruzi after 48 hrs by [3H]-hypoxanthine incorporation assay; format: functional, organism-based
# Leishmania donovani [8] = test: […] activity against Leishmania donovani after 48 hrs by [3H]-hypoxanthine incorporation assay; format: functional, organism-based
# [9] = test system: Trypanosoma brucei rhodesiense; test: Antitrypanosomal activity against Trypanosoma brucei rhodesiense after 48 hrs by [3H]-hypoxanthine incorporation assay; format: functional, organism-based
IC50 (Trypanosoma cruzi [4]),Compound,IC50 [3],IC50 (Leishmania donovani [5]),other results
–,COc1cc(C=O)c(-c2cccc3c2N(C)CC3)cc1OC,–,–,Activity (Trichomonas vaginalis [1]): 28%; Activity (Trichomonas vaginalis [2]): 28%
90 µg/mL,O=c1c2cc3c(cc2c2cccc4ccn1c42)OCO3,8.4 µg/mL,–,–
–,CO[C@H]1C=C[C@@]23c4cc5c(cc4CN(C[C@@H]2O)[C@H]3C1)OCO5,–,–,IC50 (Entamoeba histolytica): 0.53 µg/mL
–,c1c2c(cc3c1[C@@H]1C[C@H]4[C@H](CC[C@@H]5NCC[C@@]354)O1)OCO2,18.7 µg/mL,–,–
–,O=C(O[C@H]1[C@H]2c3cc4c(cc3CN3CCC(=C[C@@H]1OC(=O)c1ccccc1)[C@H]23)OCO4)c1ccccc1,–,–,Activity (Trichomonas vaginalis [1]): 84%
> 30 µg/mL,COc1cc2c[n+]3c4c(cc([O-])cc4c2cc1O)CC3,> 30 µg/mL,> 30 µg/mL,–
–,O=C(O[C@H]1C=C2CCN3Cc4cc5c(cc4[C@H]([C@@H]1O)[C@@H]23)OCO5)c1ccc([N+](=O)[O-])cc1,–,–,Activity (Trichomonas vaginalis [1]): 79%
–,CCCCCCCCCCCC(=O)O[C@H]1C=C2CCN3Cc4cc5c(cc4[C@H]([C@@H]1O)[C@@H]23)OCO5,–,–,Activity (Trichomonas vaginalis [1]): 97%
–,COc1c2c(cc3c1C(=O)O[C@H]1[C@@H]3[C@H]3C(=C[C@@H]1O)CCN3C)OCO2 [CANDIMINE],–,–,Activity (Trichomonas vaginalis [1]): 60%
–,O=C(O[C@H]1[C@H]2c3cc4c(cc3CN3CCC(=C[C@@H]1O)[C@H]23)OCO4)c1ccc([N+](=O)[O-])cc1,–,–,Activity (Trichomonas vaginalis [1]): 58%
1 to 8.4 µg/mL,CC(=O)O[C@H]1[C@H]2c3cc4c(cc3CN3CCC(=C[C@@H]1OC(C)=O)[C@H]23)OCO4,1 to 125 µg/mL,–,Activity (Trichomonas vaginalis [1]): 19%
88.4 µg/mL,COc1cc2c(cc1O)C[N@@]1C[C@H](O)[C@@]23C=C[C@@H](OC)C[C@H]13,10.2 µg/mL,> 90 µg/mL,–
–,O[C@H]1CC[C@H]2[N@@]3CC[C@@]2(c2cc4c(cc2C3)OCO4)[C@H]1O,11.1 µg/mL,–,–
–,Cc1ncc([N+](=O)[O-])n1CC(O)CCl (centres undefined) [ORNIDAZOLE],–,–,IC50 (Entamoeba histolytica): 0.28 µg/mL
54.6 µg/mL,O[C@H]1[C@H]2C(=CC[C@@H]1O)[C@H]1C[N@]2Cc2cc3c(cc21)OCO3,9.6 µg/mL,> 30 µg/mL,–
17.5 µg/mL,c1cc2c(c3c1C[C@H]1c4cc5c(cc4CCN1C3)OCO5)OCO2 [STYLOPINE],10.9 µg/mL,31.2 µg/mL,–
35.9 µg/mL,CC(=O)O[C@@H]1CC=C2CCN3Cc4cc5c(cc4[C@H]1[C@@H]23)OCO5 [ACETYLCARANINE],1.97 µg/mL,> 100 µg/mL,–
–,CO[C@H]1C=C2[C@H]3CN(Cc4cc5c(cc43)OCO5)[C@H]2C[C@@H]1O [MONTANINE],–,–,Activity (Trichomonas vaginalis [2]): 35%
–,O[C@H]1[C@H]2c3cc4c(cc3CN3CCC(=C[C@@H]1O)[C@H]23)OCO4 [LYCORINE],3.1 µg/mL,–,Activity (Trichomonas vaginalis [1]): 40%; Activity (Trichomonas vaginalis [2]): 20%; IC50 (Entamoeba histolytica): 0.23 µg/mL
–,COc1cc([C@@H]2c3cc4c(cc3[C@H](O)[C@H]3COC(=O)[C@H]23)OCO4)cc(OC)c1OC [PODOFILOX],–,–,IC50 (KB): 0.002 µg/mL; IC50 (L6): 0.005 µg/mL

IC50 (Trypanosoma cruzi [4]),Compound,IC50 [3],IC50 (Leishmania donovani [5]),other results
0.36 µg/mL,CCCCCCCCCCCCCCCCOP(=O)([O-])OCC[N+](C)(C)C [MILTEFOSINE],0.04 µg/mL,0.2 µg/mL,–
> 90 µg/mL,O=C(O)c1cccnc1 [NIACIN],41.2 µg/mL,57.4 µg/mL,–
0.85 µg/mL,[O-]c1cc2c3c(c1)c1cc4c(cc1c[n+]3CC2)OCO4 [UNGEREMINE],0.97 µg/mL,> 30 µg/mL,–
> 90 µg/mL,[O-][N@@+]12Cc3cc4c(cc3[C@]3(C=C[C@@H](O)C[C@@H]31)[C@@H](O)C2)OCO4,> 90 µg/mL,> 90 µg/mL,–
–,O[C@H]1C=C[C@@]23CCN(Cc4cc5c(cc42)OCO5)[C@@H]3C1 [CRININE],18.9 µg/mL,–,–
–,CO[C@@H]1C=C[C@@]23c4cc5c(cc4[C@H](O)O[C@H]2CN(C)[C@H]3C1)OCO5,–,–,Activity (Trichomonas vaginalis [2]): 38%
–,COc1cc2c(cc1OC)[C@@H]1[C@H](O)[C@@H](OC)C=C3CCN(C2)[C@H]31 [GALANTHINE],3.1 µg/mL,–,–
–,O[C@@H]1CC[C@H]2N3CC[C@@]2(c2cc4c(cc2C3)OCO4)[C@@H]1O,31.9 µg/mL,–,–
8.3 µg/mL,CC(=O)O[C@H]1C=C[C@@]23c4cc5c(cc4C[N@@](C[C@@H]2O)[C@H]3C1)OCO5,1.51 µg/mL,17.9 µg/mL,–
–,COc1cc2c(cc1O)CN1CCC3=CC[C@@H](O)[C@@H]2[C@@H]31 [NORPLUVINE],90 µg/mL,–,–
–,COc1cc2c(cc1OC)[C@@]13C=CC(=O)C[C@@H]1[N@](CC3)C2,2.8 µg/mL,–,–
> 90 µg/mL,COc1cc2c(cc1OC)[C@@H]1[C@H](OC(C)=O)[C@@H](O)C[C@H]3CC[N+]([O-])(C2)[C@H]31 (some centres undefined),73.4 µg/mL,> 90 µg/mL,IC50 (KB): > 50 µg/mL; IC50 (L6): > 90 µg/mL; selectivity ratio [6]: > 16
52.7 µg/mL,O=c1[nH]c2c(O)cccc2c2cc3c(cc12)OCO3,5.99 µg/mL,> 90 µg/mL,–
> 30 µg/mL,COc1cc2c(cc1O)[C@@H]1[C@H](O)[C@@H](O)C=C3CCN(C2)[C@H]31 [PSEUDOLYCORINE],–,> 30 µg/mL,–
–,COc1cc2c(cc1OC)[C@@H]1[C@H](O)[C@@H](OC)[C@H](O)C3=CCN(C2)[C@H]31,3.1 µg/mL,–,–
–,O=C(O[C@H]1C=C2CCN3Cc4cc5c(cc4[C@H]([C@@H]1O)[C@@H]23)OCO5)c1ccccc1,–,–,Activity (Trichomonas vaginalis [1]): 35%
–,CO[C@@H]1C=C[C@@]23c4cc5c(cc4CO[C@]2(O)CN(C)[C@H]3C1)OCO5 [TAZETTINE],–,–,Activity (Trichomonas vaginalis [2]): 15%
0.36 µg/mL,O=C(Cn1ccnc1[N+](=O)[O-])NCc1ccccc1 [BENZNIDAZOLE],0.04 µg/mL,0.2 µg/mL,IC50 (Trypanosoma cruzi [7]): 5.42 µg/mL; IC50 (Leishmania donovani [8]): 33.3 µg/mL; IC50 [9]: 0.001 µg/mL
–,CN1CCC2=C[C@H](O)[C@H]3OC(=O)c4cc5c(cc4[C@H]3[C@@H]21)OCO5,–,–,Activity (Trichomonas vaginalis [2]): 13%
46.3 µg/mL,CN1CCc2cc3c(cc2C(=O)Cc2ccc4c(c2C1)OCO4)OCO3,8.71 µg/mL,> 90 µg/mL,–

Compound,IC50 (Trypanosoma cruzi [4]),IC50 [3],IC50 (Leishmania donovani [5]),other results
CC(=O)O[C@H]1C=C[C@@]23CCN(C)Cc4ccc(O)c(c42)O[C@H]3C1,2.3 µg/mL,1.1 µg/mL,–,–
COc1ccc2c3c1O[C@H]1C[C@@H](O)C=C[C@@]31CCN(C)C2 [GALANTAMINE],> 30 µg/mL,> 30 µg/mL,> 30 µg/mL,–
O[C@H]1C=C2[C@H]3CN(Cc4cc5c(cc43)OCO5)[C@H]2C[C@@H]1O,7.1 µg/mL,0.7 µg/mL,> 30 µg/mL,–
COc1cc2c(cc1O)CN1CC[C@@]23C=CC(O)C[C@H]13 (some centres undefined),> 90 µg/mL,61.5 µg/mL,> 90 µg/mL,–
COc1c2c(cc3c1OCO3)[C@@]13CC[N@@](C2)[C@@H]1C[C@@H](OC)[C@@H]1O[C@@H]13,56 µg/mL,15 µg/mL,> 100 µg/mL,–
CO[C@@H]1C=C[C@@]23c4cc5c(cc4CN(C[C@@H]2O)[C@H]3C1)OCO5 [(+)-HAEMANTHAMINE],1.8 to 30 µg/mL,0.49 to 3.35 µg/mL,1.95 to 30 µg/mL,IC50 (Entamoeba histolytica): 0.75 µg/mL
COc1c2c(cc3c1OCO3)[C@]13CC[N@](C2)[C@H]1CC=C[C@@H]3O,> 30 µg/mL,28.8 µg/mL,> 30 µg/mL,–
O[C@H]1[C@H]2c3cc4c(cc3CN3CC[C@H](C[C@@H]1O)[C@H]23)OCO4,21.4 µg/mL,3.1 µg/mL,> 90 µg/mL,IC50 (KB): > 50 µg/mL; IC50 (L6): 27 µg/mL; selectivity ratio [6]: > 16
CN1CC[C@@]23C=C[C@H](O)C[C@@H]2Oc2c(O)ccc(c23)C1 [SANGUININE],> 30 µg/mL,22.5 µg/mL,> 30 µg/mL,–
COC1C=C[C@@]23CCN(Cc4cc5c(cc42)OCO5)[C@@H]3C1 (some centres undefined),55.5 µg/mL,16.5 µg/mL,> 100 µg/mL,–
COc1ccc(CNCCc2ccc(O)cc2)cc1O,58.7 µg/mL,28.6 µg/mL,52.9 µg/mL,–
CN1CC[C@]23c4cc5c(cc4[C@@H]4C[C@H]2[C@H](CC[C@H]13)O4)OCO5,54 µg/mL,19.2 µg/mL,> 100 µg/mL,–
CO[C@@H]1C=C[C@@]23c4cc5c(cc4[C@H](O)N(C[C@@H]2O)[C@H]3C1)OCO5,1.38 to 1.4 µg/mL,1.1 µg/mL,–,–
Nc1nc(N)nc(Nc2ccc([As]3SCC(CO)S3)cc2)n1 (centres undefined) [MELARSOPROL],0.36 µg/mL,0.04 µg/mL,0.2 µg/mL,IC50 (Trypanosoma cruzi [7]): 5.42 µg/mL; IC50 (Leishmania donovani [8]): 33.3 µg/mL
COc1ccc2c3c1O[C@H]1C[C@H](O)C=C[C@@]31CCN(C)C2,> 30 µg/mL,–,> 30 µg/mL,–
COc1c2c(cc3c1OCO3)[C@@]13CCN(C2)[C@@H]1CC=C[C@H]3O [BUPHANAMINE],62.9 µg/mL,28.2 µg/mL,> 100 µg/mL,–
